Experimental data as given in PMC5706701, “Development of a homogenous high-throughput assay for inositol hexakisphosphate kinase 1 activity” (PLoS ONE, 2017).
Like-named read-outs stand apart in the source and are kept apart here.

Assays:
human IP6K2 = target: T1, human IP6K2 (Homo sapiens, UniProt Q9UHH9); test: IP6K2 inhibition dose-response assay (ADP-Glo Max); type: biochemical
T1 construct: GST (N, cleaved yes); made in house; host or cells: C43 E. coli, pGEX-6P-2
T1 sequence (Q9UHH9 1-426): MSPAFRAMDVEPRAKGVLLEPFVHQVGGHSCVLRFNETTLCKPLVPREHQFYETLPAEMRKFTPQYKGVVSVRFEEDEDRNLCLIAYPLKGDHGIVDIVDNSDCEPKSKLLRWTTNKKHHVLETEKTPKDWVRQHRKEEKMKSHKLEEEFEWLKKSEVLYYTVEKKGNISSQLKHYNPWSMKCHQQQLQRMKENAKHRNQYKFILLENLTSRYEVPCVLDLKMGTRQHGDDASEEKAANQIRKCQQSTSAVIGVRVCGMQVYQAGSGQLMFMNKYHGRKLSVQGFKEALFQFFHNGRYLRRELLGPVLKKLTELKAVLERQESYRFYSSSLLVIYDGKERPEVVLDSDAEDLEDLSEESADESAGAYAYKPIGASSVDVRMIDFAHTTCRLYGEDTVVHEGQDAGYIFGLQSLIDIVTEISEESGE
Procedure: (§1) Human IP6K1 (NCBI accession# Q92551), human IP6K2 (NCBI accession# Q9UHH9), and human IP6K3 (NCBI accession# Q96PC2) were purified from C43 E. coli transformed with pGEX-6P-2 expression vector containing GST tagged IP6K1, IP6K2, or IP6K3. The bacteria were grown overnight in a starter culture containing LB (Lennox) and 100μg/mL ampicillin (Sigma). The starter culture was diluted 1:100 into LB (Lennox) and allowed to grow to an optical density of 0.8 at 37°C when protein expression was induced with 1mM IPTG (Calbiochem) for 5hrs. The cells were pelleted with 3000RCF at 4°C and frozen at -80°C. Later, the bacteria was re-suspended in lysis buffer (20mM Tris, 200mM NaCl, 5mM DTT, 1% Triton-X, 0.5% IPEGAL, 1mg/mL lysozyme, and 1 protease inhibitor tablet (Sigma) per 100mL buffer, pH 7.4) and rotated on an end over end shaker for 30 min at 4°C followed by sonication. […]
(§2) For the dose response assays, 7–10 serial 3-fold compound dilutions were prepared in DMSO and then each compound was diluted with assay buffer (50mM Tris, 10mM MgCl2, 2.5mM DTT, 0.02% Triton X-100, pH 6.9) to reach the desired inhibitor concentrations in 25% DMSO. […] Luminescence generated was read on a Tecan Infinite M100 Pro plate reader. Samples were run in quadruplicate and the data was analyzed using a […] variable slope inhibition parameter on GraphPad Prism 7. […]

Human IP6K1 [1] = target: T2, Human IP6K1 (Homo sapiens, UniProt Q92551); test: IP6K1 inhibition dose-response assay (ADP-Glo Max); type: biochemical
T2 construct: GST (N, cleaved yes); made in house; host or cells: C43 E. coli, pGEX-6P-2
T2 sequence (Q92551 whole entry): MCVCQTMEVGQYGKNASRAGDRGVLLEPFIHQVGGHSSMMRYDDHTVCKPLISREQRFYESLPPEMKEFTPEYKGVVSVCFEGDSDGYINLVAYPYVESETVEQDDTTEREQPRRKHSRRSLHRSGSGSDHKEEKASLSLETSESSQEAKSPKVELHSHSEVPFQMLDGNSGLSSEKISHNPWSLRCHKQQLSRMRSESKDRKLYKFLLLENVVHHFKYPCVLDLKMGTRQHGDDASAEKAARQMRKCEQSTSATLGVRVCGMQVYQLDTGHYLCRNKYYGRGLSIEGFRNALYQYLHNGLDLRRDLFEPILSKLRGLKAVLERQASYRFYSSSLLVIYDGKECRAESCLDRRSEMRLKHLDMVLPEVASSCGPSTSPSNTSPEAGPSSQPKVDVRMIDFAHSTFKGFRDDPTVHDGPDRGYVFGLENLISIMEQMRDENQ

human IP6K3 = target: T3, human IP6K3 (Homo sapiens, UniProt Q96PC2); test: IP6K3 inhibition dose-response assay (ADP-Glo Max); type: biochemical
T3 construct: GST (N, cleaved yes); made in house; host or cells: C43 E. coli, pGEX-6P-2
T3 sequence (Q96PC2 1-410): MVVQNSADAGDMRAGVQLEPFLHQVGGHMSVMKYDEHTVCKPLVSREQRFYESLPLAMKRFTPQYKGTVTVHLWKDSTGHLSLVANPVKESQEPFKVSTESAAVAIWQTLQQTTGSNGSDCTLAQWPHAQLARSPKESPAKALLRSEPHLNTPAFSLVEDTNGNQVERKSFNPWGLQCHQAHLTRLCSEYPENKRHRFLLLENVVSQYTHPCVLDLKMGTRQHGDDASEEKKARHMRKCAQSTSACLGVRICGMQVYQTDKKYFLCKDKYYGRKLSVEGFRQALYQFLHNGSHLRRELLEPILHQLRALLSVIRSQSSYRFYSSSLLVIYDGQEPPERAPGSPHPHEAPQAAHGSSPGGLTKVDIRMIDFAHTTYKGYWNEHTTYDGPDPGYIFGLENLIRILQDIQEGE
Procedure: as §1, §2

[2] = test system: enzymes involved in the detection steps of the kit; test: Counter-screen against the detection steps of the ADP-Glo Max kit (no enzyme, no IP6); type: biochemical; settings: 10μM compound, 25μM ADP and 975μM ATP
Procedure: The Sigma LOPAC was obtained as 10mM DMSO stock solutions from the Johns Hopkins ChemCore facility. Each compound was first diluted to 50μM and 25% DMSO in assay buffer. The inhibition assay was performed as described above with 1μL of compound and 4μL of kinase master mix so that the final compound concentration was 10μM in 5% DMSO. […] Hits were determined based by the Z score, which is calculated as Z = (Xi-Xavg)/Sx, where Xi is the raw measurement on the i^th compound, Xavg and Sx are the mean and the standard deviation, respectively, of all measurements within the plate. Hits identified from the screen were repeated in the assay in quadruplicate for confirmation. These confirmed hits were then tested to determine if they inhibited the enzymes involved in the detection steps of the kit. Possible interference of the compounds was assessed by measuring the degree to which they inhibited the signal produced by a 25μM ADP in the presence of 975μM ATP. This experiment was run as described above for the inhibition assays in the absence of enzyme and IP6.

Human IP6K1 [3] = target: T2, Human IP6K1; test: Inositol polyphosphate separation by PAGE (5PP-IP5 production by IP6K1); type: biochemical; settings: 10μM inhibitor, 1mM ATP, 250μM IP6, 60nM IP6K1, 2 hours, 37°C
Human IP6K1 [4] = target: T2, Human IP6K1; test: IP6K1 high-throughput screen of the Sigma LOPAC (ADP-Glo Max, single point); type: biochemical
IP6K1 = test system: IP6K1; design: method as in PMID 8633060; settings: 3H-PP-IP5 production with 3H-IP6 as substrate; read-out: Km of ATP for IP6K1; cited from earlier work
Human IP6K1 [5] = target: T2, Human IP6K1; test: IP6K1 kinetic assay (ADP-Glo Max, Michaelis-Menten); type: biochemical; settings: 400μM IP6, ATP 31.25μM to 2mM, 15ng IP6K1, 15 minutes
Procedure: IP6K1 activity was measured using the ADP-Glo Max kit (Promega). […] Reactions were quenched with 5μL of Promega ADP-Glo reagent to deplete the remaining ATP at the corresponding time points and incubated for 1hr at room temperature in the dark. […] Luminescence was detected with a Tecan Infinite […] plate reader. The amount of ADP produced by IP6K1 was determined by correlating the observed luminescence to a luminescence signal standard curve generated from various concentrations of ADP. A new standard curve was generated for each concentration of ATP tested such that the total amount of nucleotides (ATP+ADP) at every point on the curve was equal to the concentration of ATP used in the experiment. Standard curves typically began with 100μM or 50μM ADP and were serially 2-fold diluted 8 times. […] Nonlinear regressions and curve fitting to the Michaelis-Menten equation were performed in GraphPad Prism 7. […] The ADP production at […] was measured. The initial reaction velocity (V0) was calculated and plotted with each ATP condition. GraphPad Prism 7 was used to run the non-linear regression and fit the data to the Michaelis-Menten equation. […] The Michaelis-Menten constants when IP6 is the varied substrate were unable to be determined.

[6] = LOPAC single-point screen, ADP-Glo Max luminescence raw signal per well
[7] = LOPAC single-point screen, Z-score relative to plate average and StDev
[8] = LOPAC single-point screen, ADP-Glo Max raw signal per well
[9] = LOPAC single-point screen, Z-score against plate average and StDev
[10] = LOPAC single-point screen, Z-score from raw signal with plate average and StDev
[11] = LOPAC single-point screen, Z-score from plate average and StDev

NC(Cc1cc(O)c(O)cc1O)C(=O)O (racemic) [6-Hydroxy-DL-Dopa]
IC50 (human IP6K2): 1.66 ± 1.06 µM
IC50 (Human IP6K1 [1]): 1.84 ± 1.03 µM
IC50 (human IP6K3): 11.1 ± 1.13 µM
Signal loss in counter-screen of detection steps [2]: neither TNP nor 6-Hydroxy-DL-Dopa showed significant signal loss
Inhibition of 5PP-IP5 production by IP6K1 (PAGE, Toluidine Blue) (Human IP6K1 [3]): inhibited below the limit of detection
Raw Signal (Human IP6K1 [4]; [6]): 10170
Z-score (Human IP6K1 [4]; [7]): -9.138

Nc1ncnc2c1ncn2[C@@H]1O[C@H](COP(=O)(O)OP(=O)(O)OP(=O)(O)O)[C@@H](O)[C@H]1O [ATP]
Km (IP6K1): 1000 µM
Km (Human IP6K1 [5]): 382 ± 44 µM
Vmax for ATP (Human IP6K1 [5]): 1116 ± 41 nmol/min/mg

O=c1c(O)c(-c2cc(O)c(O)c(O)c2)oc2cc(O)cc(O)c12 [Myricetin]
IC50 (human IP6K2; 1mM ATP, 100μM IP6, 7.5nM IP6K2, 30 minutes, 37°C, read-out: IC50 IP6K2): 23.4 ± 1.1 µM
IC50 (human IP6K3; 1mM ATP, 100μM IP6, 120nM IP6K3, 120 minutes, 37°C, read-out: IC50 IP6K3): 4.93 ± 1.14 µM
Signal loss in counter-screen of detection steps [2]: significantly inhibit the secondary reagents
Raw Signal (Human IP6K1 [4]; [6]): 8540
Inhibition of enzyme activity in initial LOPAC screen (Human IP6K1 [4]; single point 100μM compound, 62.5μM ATP): 100%

(-)-3-Methoxynaltrexone hydrochloride
Raw Signal (Human IP6K1 [4]; [8]): 54969
Z-score (Human IP6K1 [4]; [9]): 0.0967

Adenosine 3 ,5 -cyclic monophosphate
Raw Signal (Human IP6K1 [4]): 66195
Z-score (Human IP6K1 [4]): 1.459

Foliosidine
Raw Signal (Human IP6K1 [4]; [8]): 53530
Z-score (Human IP6K1 [4]; [10]): -0.3325

JL-18
Raw Signal (Human IP6K1 [4]; [6]): 64215
Z-score (Human IP6K1 [4]; [11]): 1.65

L-Methionine sulfoximine
Raw Signal (Human IP6K1 [4]): 58334
Z-score (Human IP6K1 [4]): 0.6621

LY-310,762 hydrochloride
Raw Signal (Human IP6K1 [4]; [8]): 55045
Z-score (Human IP6K1 [4]; [9]): 0.1095

LY-367,265
Raw Signal (Human IP6K1 [4]; [6]): 62501
Z-score (Human IP6K1 [4]; [11]): 1.362

MDL 26,630 trihydrochloride
Raw Signal (Human IP6K1 [4]; [8]): 53612
Z-score (Human IP6K1 [4]; [10]): -0.1313

NS 521 oxalate
Raw Signal (Human IP6K1 [4]; [8]): 56111
Z-score (Human IP6K1 [4]; [9]): 0.2886

Oligomycin A
Raw Signal (Human IP6K1 [4]; [8]): 55071
Z-score (Human IP6K1 [4]; [9]): 0.1138

Picrotoxin
Z-score (Human IP6K1 [4]; [7]): -0.5599

R(-)-Me5
Raw Signal (Human IP6K1 [4]; [8]): 53002
Z-score (Human IP6K1 [4]; [10]): -0.2338

R(-)-SCH-12679 maleate
Raw Signal (Human IP6K1 [4]; [6]): 53479
Z-score (Human IP6K1 [4]; [7]): -0.4944

Ro 20-1724
Raw Signal (Human IP6K1 [4]; [6]): 54602
Z-score (Human IP6K1 [4]; [7]): -0.5832

S(-)-DS 121 hydrochloride
Raw Signal (Human IP6K1 [4]; [8]): 56472
Z-score (Human IP6K1 [4]; [9]): 0.265

S(-)-UH-301 hydrochloride
Raw Signal (Human IP6K1 [4]; [8]): 55198
Z-score (Human IP6K1 [4]; [10]): -0.1604

S-Nitroso-N-acetylpenicillamine
Raw Signal (Human IP6K1 [4]; [8]): 52205
Z-score (Human IP6K1 [4]; [10]): -0.3677

SKF 83565 hydrobromide
Raw Signal (Human IP6K1 [4]; Sigma LOPAC single-point screen, ADP-Glo Max raw signal per well): 61448
Z-score (Human IP6K1 [4]; Sigma LOPAC single-point screen, Z-score from plate average and StDev): 1.054
